Source: ChEMBL document CHEMBL1137374, “Discovery of 6-N,N-bis(2,2,2-trifluoroethyl)amino- 4-trifluoromethylquinolin-2(1H)-one as a novel selective androgen receptor modulator” (J Med Chem, 2006)
Activity calls are given as the source filed them. The calls are words filed in the database; no cut-off is given here.

Experiments:
Androgen receptor [1] = target: T1, Androgen receptor (Homo sapiens, UniProt P10275)
T1 sequence (P10275 whole entry): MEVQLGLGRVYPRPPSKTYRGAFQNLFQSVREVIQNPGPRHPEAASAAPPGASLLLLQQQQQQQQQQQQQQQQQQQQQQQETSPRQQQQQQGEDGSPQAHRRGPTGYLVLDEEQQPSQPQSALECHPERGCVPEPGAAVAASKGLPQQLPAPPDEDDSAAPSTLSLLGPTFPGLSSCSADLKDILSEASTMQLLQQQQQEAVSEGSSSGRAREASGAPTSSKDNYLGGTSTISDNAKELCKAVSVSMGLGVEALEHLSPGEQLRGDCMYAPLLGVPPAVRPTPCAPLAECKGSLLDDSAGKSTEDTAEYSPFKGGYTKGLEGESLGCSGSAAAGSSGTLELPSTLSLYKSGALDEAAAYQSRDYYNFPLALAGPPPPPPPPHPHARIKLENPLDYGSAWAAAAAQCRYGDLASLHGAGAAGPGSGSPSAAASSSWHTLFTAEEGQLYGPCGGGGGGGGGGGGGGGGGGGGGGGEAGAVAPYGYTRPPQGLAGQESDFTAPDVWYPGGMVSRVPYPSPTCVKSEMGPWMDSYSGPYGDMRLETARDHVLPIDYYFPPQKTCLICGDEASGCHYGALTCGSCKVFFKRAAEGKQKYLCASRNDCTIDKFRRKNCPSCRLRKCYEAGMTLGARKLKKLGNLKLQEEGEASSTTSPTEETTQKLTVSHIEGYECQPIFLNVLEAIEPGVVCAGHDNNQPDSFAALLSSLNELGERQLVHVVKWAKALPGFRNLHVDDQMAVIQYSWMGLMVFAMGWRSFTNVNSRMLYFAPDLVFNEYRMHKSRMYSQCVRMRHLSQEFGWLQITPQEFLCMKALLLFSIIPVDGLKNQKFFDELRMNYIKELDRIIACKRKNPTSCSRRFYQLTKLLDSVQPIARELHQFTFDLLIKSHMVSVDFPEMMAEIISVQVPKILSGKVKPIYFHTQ
Description: Displacement of [3H]DHT from human androgen receptor expressed in MDA-MB-453 cells by whole cell receptor binding assay

Androgen receptor [2] = target: T1, Androgen receptor; remark: listed apart in the source
Description: Agonist activity at human androgen receptor in CV1 cells measured as stimulation of luciferase reporter gene activity by cotransfection assay

Androgen receptor [3] = target: T1, Androgen receptor; remark: listed apart in the source
Description: Antagonist activity against human androgen receptor in CV1 cells measured as inhibition of DHT-stimulated luciferase reporter gene activity by cotransfection assay

Rattus norvegicus [4] = experiment: Androgenic activity in orchidectomized rat at 2.0 mg/kg, sc measured as increase in ventral prostate weight to eugonadal level; type: functional, organism-based; parameters: dose 2 mg/kg; conditions: Prostate gland
Rattus norvegicus [5] = experiment: Anabolic activity in orchidectomized rat at 2.0 mg/kg, sc measured as increase in levator ani muscle weight to eugonadal level; type: functional, organism-based; parameters: dose 2 mg/kg
Rattus norvegicus [6] = species: Rattus norvegicus; experiment: Anabolic activity in orchidectomized rat measured as increase in levator ani muscle weight relative to intact rat; type: functional
Rattus norvegicus [7] = experiment: Anabolic activity in orchidectomized rat at 3.0 mg/kg, po measured as increase in levator ani muscle weight to eugonadal level; type: functional, organism-based; parameters: dose 3 mg/kg
Rattus norvegicus [8] = experiment: Androgenic activity in orchidectomized rat at 100 mg/kg, po measured as increase in ventral prostate weight to intact level; type: functional, organism-based; parameters: dose 100 mg/kg; conditions: Prostate gland
Glucocorticoid receptor = target: T2, Glucocorticoid receptor (Homo sapiens, UniProt P04150); experiment: Binding affinity to glucocorticoid receptor
T2 sequence (P04150 whole entry): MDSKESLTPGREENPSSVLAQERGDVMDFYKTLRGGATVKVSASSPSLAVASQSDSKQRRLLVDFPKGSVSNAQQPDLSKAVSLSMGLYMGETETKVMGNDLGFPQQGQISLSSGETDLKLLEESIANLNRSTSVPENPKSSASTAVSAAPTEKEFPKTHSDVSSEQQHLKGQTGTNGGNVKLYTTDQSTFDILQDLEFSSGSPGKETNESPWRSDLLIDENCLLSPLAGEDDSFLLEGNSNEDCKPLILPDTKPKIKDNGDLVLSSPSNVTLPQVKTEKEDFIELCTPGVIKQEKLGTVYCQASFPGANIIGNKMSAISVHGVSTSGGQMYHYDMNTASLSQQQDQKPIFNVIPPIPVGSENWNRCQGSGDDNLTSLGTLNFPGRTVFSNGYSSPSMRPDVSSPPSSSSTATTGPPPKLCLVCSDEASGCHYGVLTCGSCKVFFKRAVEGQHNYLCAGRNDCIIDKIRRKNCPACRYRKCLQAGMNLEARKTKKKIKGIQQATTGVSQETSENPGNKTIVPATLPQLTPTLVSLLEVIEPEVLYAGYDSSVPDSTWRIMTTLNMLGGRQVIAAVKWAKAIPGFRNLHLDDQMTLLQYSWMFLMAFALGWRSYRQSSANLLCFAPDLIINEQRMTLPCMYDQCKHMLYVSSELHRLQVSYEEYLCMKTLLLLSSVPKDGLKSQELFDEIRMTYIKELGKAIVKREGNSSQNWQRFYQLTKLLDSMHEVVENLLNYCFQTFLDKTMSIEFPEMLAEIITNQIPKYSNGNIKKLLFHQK

[9] = target: T3, Mineralocorticoid receptor (Homo sapiens, UniProt P08235); experiment: Binding affinity to mineralocorticoid receptor
T3 sequence (P08235 whole entry): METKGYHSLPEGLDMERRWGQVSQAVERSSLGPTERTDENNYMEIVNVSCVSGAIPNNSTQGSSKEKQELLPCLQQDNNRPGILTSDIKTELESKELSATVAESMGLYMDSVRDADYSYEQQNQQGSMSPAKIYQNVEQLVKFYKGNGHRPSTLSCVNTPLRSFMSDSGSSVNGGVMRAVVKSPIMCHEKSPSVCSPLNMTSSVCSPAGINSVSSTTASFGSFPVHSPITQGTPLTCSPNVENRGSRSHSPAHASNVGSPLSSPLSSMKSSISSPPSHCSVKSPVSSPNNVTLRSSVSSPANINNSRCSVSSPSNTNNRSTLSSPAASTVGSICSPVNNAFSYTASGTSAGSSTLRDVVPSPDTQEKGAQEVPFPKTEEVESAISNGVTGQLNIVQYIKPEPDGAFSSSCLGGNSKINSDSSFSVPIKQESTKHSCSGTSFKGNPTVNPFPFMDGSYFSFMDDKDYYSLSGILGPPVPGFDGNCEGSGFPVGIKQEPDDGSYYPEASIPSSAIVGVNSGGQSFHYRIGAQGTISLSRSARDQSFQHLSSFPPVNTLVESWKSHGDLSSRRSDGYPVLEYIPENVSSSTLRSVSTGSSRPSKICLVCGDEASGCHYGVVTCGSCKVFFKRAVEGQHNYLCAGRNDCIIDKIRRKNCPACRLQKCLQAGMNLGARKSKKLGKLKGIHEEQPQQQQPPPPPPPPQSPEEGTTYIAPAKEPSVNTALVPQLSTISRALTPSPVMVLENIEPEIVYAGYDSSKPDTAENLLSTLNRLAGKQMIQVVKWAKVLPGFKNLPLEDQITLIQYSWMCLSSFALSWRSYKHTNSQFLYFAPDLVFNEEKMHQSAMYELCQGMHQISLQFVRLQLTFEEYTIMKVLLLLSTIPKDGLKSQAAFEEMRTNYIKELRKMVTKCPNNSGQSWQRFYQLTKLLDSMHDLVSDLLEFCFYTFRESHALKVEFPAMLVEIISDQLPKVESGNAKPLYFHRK

Progesterone receptor = target: T4, Progesterone receptor (Homo sapiens, UniProt P06401)
T4 sequence (P06401 whole entry): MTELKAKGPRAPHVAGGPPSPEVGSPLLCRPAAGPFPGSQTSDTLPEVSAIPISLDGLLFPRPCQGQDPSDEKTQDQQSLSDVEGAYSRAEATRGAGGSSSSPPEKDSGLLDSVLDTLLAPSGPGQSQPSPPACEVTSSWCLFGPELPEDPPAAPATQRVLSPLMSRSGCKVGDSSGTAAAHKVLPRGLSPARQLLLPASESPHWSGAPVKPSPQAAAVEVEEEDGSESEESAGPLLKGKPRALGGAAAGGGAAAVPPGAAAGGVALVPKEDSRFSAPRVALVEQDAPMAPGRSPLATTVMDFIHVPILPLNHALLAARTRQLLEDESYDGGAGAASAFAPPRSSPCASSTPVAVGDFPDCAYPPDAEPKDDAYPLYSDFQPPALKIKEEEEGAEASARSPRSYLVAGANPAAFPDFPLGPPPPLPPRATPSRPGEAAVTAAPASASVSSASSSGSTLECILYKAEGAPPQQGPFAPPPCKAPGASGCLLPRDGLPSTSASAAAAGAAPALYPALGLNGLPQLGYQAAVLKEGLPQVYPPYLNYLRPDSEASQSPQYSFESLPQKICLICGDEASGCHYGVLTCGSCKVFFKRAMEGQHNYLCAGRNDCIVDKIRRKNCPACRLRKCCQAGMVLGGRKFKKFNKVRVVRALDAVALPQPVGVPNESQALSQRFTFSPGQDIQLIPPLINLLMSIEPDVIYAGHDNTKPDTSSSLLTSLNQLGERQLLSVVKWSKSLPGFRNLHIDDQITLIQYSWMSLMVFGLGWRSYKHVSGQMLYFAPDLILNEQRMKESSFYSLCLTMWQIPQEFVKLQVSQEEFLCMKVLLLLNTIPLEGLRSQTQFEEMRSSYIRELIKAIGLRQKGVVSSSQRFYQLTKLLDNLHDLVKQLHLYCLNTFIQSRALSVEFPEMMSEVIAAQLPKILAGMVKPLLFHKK
Description: Binding affinity to progesterone receptor

Estrogen receptor = target: T5, Estrogen receptor (Homo sapiens, UniProt P03372)
T5 sequence (P03372 whole entry): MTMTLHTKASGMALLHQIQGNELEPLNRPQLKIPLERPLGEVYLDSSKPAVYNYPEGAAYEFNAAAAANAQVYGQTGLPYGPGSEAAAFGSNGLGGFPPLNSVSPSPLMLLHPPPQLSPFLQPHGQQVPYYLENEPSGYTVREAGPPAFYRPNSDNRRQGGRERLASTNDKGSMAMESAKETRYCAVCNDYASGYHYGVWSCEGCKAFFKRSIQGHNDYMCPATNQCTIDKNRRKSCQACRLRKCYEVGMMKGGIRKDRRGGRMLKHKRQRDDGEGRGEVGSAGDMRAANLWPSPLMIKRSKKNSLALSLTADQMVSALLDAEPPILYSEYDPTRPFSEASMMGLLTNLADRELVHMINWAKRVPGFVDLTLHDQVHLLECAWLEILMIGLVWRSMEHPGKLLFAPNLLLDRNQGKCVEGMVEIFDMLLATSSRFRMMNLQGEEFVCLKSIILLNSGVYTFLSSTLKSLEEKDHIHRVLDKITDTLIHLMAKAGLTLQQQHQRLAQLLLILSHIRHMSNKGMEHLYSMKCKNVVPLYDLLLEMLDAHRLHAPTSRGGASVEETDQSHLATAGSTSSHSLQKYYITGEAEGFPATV
Description: Binding affinity to estrogen receptor

With `Oc1cc(C(F)(F)F)c2cc(N(CC3CC3)CC(F)(F)F)ccc2n1` the Ki (Androgen receptor [1]) was 7.1 nM, the EC50 (Androgen receptor [2]) was 2.8 nM and the IC50 (Androgen receptor [3]) was > 10000 nM.
For `C[C@]12CC[C@H]3[C@@H](CCC4=CC(=O)CC[C@@]43C)[C@@H]1CC[C@@H]2O`, the Activity (Rattus norvegicus [4]) was “Active” and the Activity (Rattus norvegicus [5]) was “Active”.
`O=c1cc(C(F)(F)F)c2cc(N(CC(F)(F)F)CC(F)(F)F)ccc2[nH]1` was tested, and the Activity (Rattus norvegicus [6]) was 150%, the Activity (Rattus norvegicus [7]) was “Active” and the Activity (Rattus norvegicus [8]) was “Active”. For the same compound, the Ki (Glucocorticoid receptor) was > 1000 nM, the Ki [9] was > 1000 nM and the Ki (Progesterone receptor) was > 1000 nM. The Ki (Estrogen receptor) was > 1000 nM.
